Data: patent US20110003314A1, “Hapten, Immunogens and Derivatives of Ascomycin Useful for Preparation of Antibodies and Immunoassays” (MICROGENICS CORPORATION, priority 2004, published 2011)

Experiments:
[1] = test system: monoclonal antibody produced by hybridoma line 28E2; experiment: CEDIA tacrolimus assay specificity (cross-reactivity); type: binding, mice; details: for Concentration Measured: added to whole blood, concentration tested 20 ng/ml
Method: Antibodies obtained using any of the aforementioned techniques are screened or purified not only for their ability to bind specifically with tacrolimus, but also for low cross-reactivity with potential interfering substances. “Cross reactivity” is determined in a quantitative immunoassay by establishing a standard curve using known dilutions of tacrolimus or ascomycin. […] The percent (%) cross-reactivity is the measured concentration divided by the tested concentration multiplied by 100.
If tacrolimus is present in the sample, it binds to the antibody, leaving the ED portion of the competing conjugate free to restore enzyme activity upon complementation reaction with enzyme acceptor (EA) fragments in the assay reaction mixture. The active enzyme is then capable of producing a quantifiable reaction product when exposed to appropriate substrate. If drug is not present in the sample, the antibody binds to the ED-drug conjugate inhibiting association of the ED fragments with the EA fragments, thus inhibiting restoration of enzyme activity. The amount of reaction product and resultant absorbance change are proportional to the amount of drug in the sample.
Each of four naturally occurring metabolites of tacrolimus, at a concentration of approximately 20 ng/ml, was added separately to a whole blood specimen. […] The cross reactivity of the metabolites was calculated as:
(measured concentration)/20ng/ml×100%
In another experiment, commonly co-administered immunosuppressants were added to whole blood and tested for cross-reactivity.

[2] = test system: antibodies that bind rapamycin; details: taught by Sedrani et al.; cited from earlier work
[3] = other immunosuppressants in whole blood, tested concentration 100,000 ng/ml
[4] = tacrolimus metabolites, 20 ng/ml in whole blood, (measured concentration)/20 ng/ml x 100%

Structure (SMILES): C[C@]12C=CC(=O)C=C1CC[C@@H]1[C@@H]2[C@@H](O)C[C@@]2(C)[C@H]1CC[C@]2(O)C(=O)CO [Prednisolone]
- % Cross-Reactivity [1, 3]: 0.0%

Structure (SMILES): COc1c(C)c2c(c(O)c1C/C=C(\C)CCC(=O)O)C(=O)OC2 [Mycophenolic acid]
- % Cross-Reactivity [1, 3]: 0.0%

Structure (SMILES): C=CCC1C=C(C)CC(C)CC(OC)C2OC(O)(C(=O)C(=O)N3CCCCC3C(=O)OC(C(C)=CC3CCC(O)C(O)C3)C(C)C(O)CC1=O)C(C)CC2OC (stereo not drawn) [31-O-demethyl-T, 31-O-demethyl tacrolimus]
- Concentration Measured [1]: 0.98 ng/mL
- % Cross-Reactivity [1, 4]: 4.9%

Structure (SMILES): C=CCC1C=C(C)CC(C)CC(OC)C2OC(O)(C(=O)C(=O)N3CCCCC3C(=O)OC(C(C)=CC3CCC(O)C(O)C3)C(C)C(O)CC1=O)C(C)CC2O (stereo not drawn) [13,31-O-didemethyl-T, 13,31-O-didemethyl tacrolimus]
- Concentration Measured [1]: 0.57 ng/mL
- % Cross-Reactivity [1, 4]: 2.9%

Structure (SMILES): C[C@]12CCC(=O)C=C1CC[C@@H]1[C@@H]2[C@@H](O)C[C@@]2(C)[C@H]1CC[C@]2(O)C(=O)CO [Hydrocorticol]
- % Cross-Reactivity [1, 3]: 0.0%

Structure (SMILES): C=CCC1C=C(C)CC(C)CC(OC)C2OC(O)(C(=O)C(=O)N3CCCCC3C(=O)OC(C(C)=CC3CCC(O)C(OC)C3)C(C)C(O)CC1=O)C(C)CC2O (stereo not drawn) [13-O-demethyl-T, 13-O-demethyl tacrolimus]
- Concentration Measured [1]: 7.5 ng/mL
- % Cross-Reactivity [1, 4]: 37.7%

Structure (SMILES): C=CC[C@@H]1/C=C(\C)C[C@H](C)C[C@H](OC)[C@H]2O[C@@](O)(C(=O)C(=O)N3CCCC[C@H]3C(=O)O[C@H](/C(C)=C/[C@@H]3CC[C@@H](O)[C@H](OC)C3)[C@H](C)[C@@H](O)CC1=O)[C@H](C)C[C@@H]2OC [tacrolimus]
- Concentration Measured [1]: 20.0 ng/mL
- % Cross-Reactivity [1, 4]: 100.0%
- cross-reactivity of rapamycin-binding antibodies [2]: greater than 50%

Structure (SMILES): C=CCC1C=C(C)CC(C)CC(O)C2OC(O)(C(=O)C(=O)N3CCCCC3C(=O)OC(C(C)=CC3CCC(O)C(OC)C3)C(C)C(O)CC1=O)C(C)CC2OC (stereo not drawn) [15-O-demethyl-T, 15-O-demethyl tacrolimus]
- Concentration Measured [1]: 0.95 ng/mL
- % Cross-Reactivity [1, 4]: 4.7%

Structure (SMILES): C[C@]12C=CC(=O)C=C1CC[C@@H]1[C@@H]2C(=O)C[C@@]2(C)[C@H]1CC[C@]2(O)C(=O)CO [Prednisone]
- % Cross-Reactivity [1, 3]: 0.0%
